Experiments:
[1] = Dissociation constant was evaluated; format: physicochemical
Dihydrofolate reductase [2] = molecular target: T1, Dihydrofolate reductase (Homo sapiens, UniProt P00374); assay: Inhibitory concentration against dihydrofolate reductase enzyme (DHFR) enzyme isolated from CCRF-CEM human leukemia cells.; format: cell-free
T1 sequence (P00374 whole entry): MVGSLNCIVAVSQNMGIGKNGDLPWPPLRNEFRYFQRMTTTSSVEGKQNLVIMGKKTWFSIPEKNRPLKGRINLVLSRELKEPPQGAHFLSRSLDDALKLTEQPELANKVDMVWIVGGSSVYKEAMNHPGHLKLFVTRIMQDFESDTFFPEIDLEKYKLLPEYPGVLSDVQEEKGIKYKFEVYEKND

Dihydrofolate reductase [3] = molecular target: T1, Dihydrofolate reductase; assay: Inhibitory concentration against dihydrofolate reductase enzyme (DHFR) enzyme isolated from CCRF-CEM human leukemia cells. value mentioned is from literature
CCRF-CEM [4] = assay: cells; conditions: Homo sapiens, read-out: ED50
CCRF-CEM [5] = assay: Inhibitory activity against growth of CCRF-CEM human leukemia cells. value mentioned is from literature; format: functional; conditions: read-out: ED50
[6] = molecular target: T2, Folylpolyglutamate synthase, mitochondrial (Homo sapiens, UniProt Q05932); assay: Inhibitory concentration against human Folyl-polyglutamate synthase isolated from CCRF-CEM human leukemia cells.; format: cell-free
T2 sequence (Q05932 whole entry): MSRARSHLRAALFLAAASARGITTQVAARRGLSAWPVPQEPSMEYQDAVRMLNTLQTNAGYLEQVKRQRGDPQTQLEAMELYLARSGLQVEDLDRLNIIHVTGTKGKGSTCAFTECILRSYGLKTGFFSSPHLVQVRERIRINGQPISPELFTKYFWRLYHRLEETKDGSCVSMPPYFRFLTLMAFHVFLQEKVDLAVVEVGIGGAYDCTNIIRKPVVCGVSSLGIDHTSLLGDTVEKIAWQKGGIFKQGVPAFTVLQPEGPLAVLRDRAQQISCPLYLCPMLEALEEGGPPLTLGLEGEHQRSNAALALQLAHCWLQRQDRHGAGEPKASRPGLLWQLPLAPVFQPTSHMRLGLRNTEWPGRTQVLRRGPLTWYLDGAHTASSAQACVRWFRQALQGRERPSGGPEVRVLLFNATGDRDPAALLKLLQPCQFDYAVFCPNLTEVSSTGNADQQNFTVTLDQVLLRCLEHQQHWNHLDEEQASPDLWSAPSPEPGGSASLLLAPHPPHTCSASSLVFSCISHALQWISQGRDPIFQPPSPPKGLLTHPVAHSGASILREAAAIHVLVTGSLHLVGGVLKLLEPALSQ

[7] = molecular target: T2, Folylpolyglutamate synthase, mitochondrial; assay: Inhibitory activity against mammalian Folyl-polyglutamate synthase

Compound | pKa [1] | IC50 (Dihydrofolate reductase [2]) [nM] | IC50 (Dihydrofolate reductase [3]) [nM] | EC50 (CCRF-CEM [4]) [nM] | EC50 (CCRF-CEM [5]) [nM] | IC50 [6] [nM] | Ki [7] [nM]
NCC(F)(F)CC(N)C(=O)O (stereo unspecified) | 6.9 |  |  |  |  |  | 
CN(Cc1cnc2nc(N)nc(N)c2n1)c1ccc(C(=O)NC(CCCN)C(=O)O)cc1 (stereo unspecified) | 10.8 | 2.5 | 1 | 740 | 740 | 33000 | 
CN(Cc1cnc2nc(N)nc(N)c2n1)c1ccc(C(=O)NC(CC(F)(F)CN)C(=O)O)cc1 (stereo unspecified) |  | 1.3 |  | 93 |  | > 300000 | 
NCCCC(NC(=O)c1ccc(NCC2CNc3nc(N)[nH]c(=O)c3N2)cc1)C(=O)O (stereo unspecified) |  |  |  |  |  |  | 200
